Measurements from the supplement of paper PMC10307832.

What was measured:
Assay in all cases: relative viability (nuclei count vs DMSO), 5 days (fraction); higher = more cells survive
[1] = tested on: COR-L 105
Summary of the method: (§1)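 A single step with final 0.05% Triton X-100, 1% formaldehyde and 1 ug/ml Hoechst fixed the cells and stained nuclei 5 days after treatment. Lung cancer cell lines in 1536-well plates had been treated by pin tool the day after seeding with one drug alone or a fixed anchor-drug dose plus five library-drug doses (not always all listed) in √10 steps, and nuclei were counted on 4× images. Relative viability is the ratio of nuclei in treated wells to nuclei in vehicle wells, taken as the median of duplicate plates.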

[2] = tested on: COR-L23
Summary of the method: as §1

[3] = tested on: EPLC-272H
Summary of the method: as §1

[4] = tested on: H3255
Summary of the method: as §1

[5] = tested on: HCC-15
Summary of the method: as §1

[6] = tested on: HCC-827
Summary of the method: as §1

[7] = tested on: LCLC-103H
Summary of the method: as §1

[8] = tested on: NCI-H1437
Summary of the method: as §1

[9] = tested on: NCI-H1650
Summary of the method: as §1

[10] = tested on: NCI-H1651
Summary of the method: as §1

[11] = tested on: NCI-H1755
Summary of the method: as §1

[12] = tested on: NCI-H1792
Summary of the method: as §1

[13] = tested on: NCI-H1944
Summary of the method: as §1

[14] = tested on: NCI-H1975
Summary of the method: as §1

[15] = tested on: NCI-H2087
Summary of the method: as §1

[16] = tested on: NCI-H358
Summary of the method: as §1

[17] = tested on: NCI-H520
Summary of the method: as §1

[18] = tested on: NCI-H522
Summary of the method: as §1

[19] = tested on: NCI-H647
Summary of the method: as §1

[20] = tested on: NCI-H650
Summary of the method: as §1

[21] = tested on: NCI-H661
Summary of the method: as §1

[22] = tested on: NCI-H727
Summary of the method: as §1

COCC1(CO)C(=O)C2CCN1CC2 (stereo not given) [PRIMA-1MET] + O=C(c1cc(Cc2n[nH]c(=O)c3ccccc23)ccc1F)N1CCN(C(=O)C2CC2)CC1 [Olaparib] (partner 8 µM)
relative viability ([1]; first compound 0.2 µM): 0.687 | relative viability ([1]; first compound 0.6325 µM): 0.685 | relative viability ([1]; first compound 2 µM): 0.713 | relative viability ([1]; first compound 6.325 µM): 0.688 | relative viability ([1]; first compound 20 µM): 0.458 | relative viability ([2]; first compound 0.2 µM): 0.38 | relative viability ([2]; first compound 0.6325 µM): 0.315 | relative viability ([2]; first compound 2 µM): 0.379 | relative viability ([2]; first compound 6.325 µM): 0.315 | relative viability ([2]; first compound 20 µM): 0.106 | relative viability ([3]; first compound 0.2 µM): 0.655 | relative viability ([3]; first compound 0.6325 µM): 0.89 | relative viability ([3]; first compound 2 µM): 0.911 | relative viability ([3]; first compound 6.325 µM): 0.694 | relative viability ([3]; first compound 20 µM): 0.0737 | relative viability ([4]; first compound 0.2 µM): 0.627 | relative viability ([4]; first compound 0.6325 µM): 0.502 | relative viability ([4]; first compound 2 µM): 0.576 | relative viability ([4]; first compound 6.325 µM): 0.606 | relative viability ([4]; first compound 20 µM): 0.533 | relative viability ([5]; first compound 0.2 µM): 0.789 | relative viability ([5]; first compound 0.6325 µM): 0.772 | relative viability ([5]; first compound 2 µM): 0.746 | relative viability ([5]; first compound 6.325 µM): 0.668 | relative viability ([5]; first compound 20 µM): 0.628 | relative viability ([6]; first compound 0.2 µM): 0.675 | relative viability ([6]; first compound 0.6325 µM): 0.675 | relative viability ([6]; first compound 2 µM): 0.587 | relative viability ([6]; first compound 6.325 µM): 0.684 | relative viability ([6]; first compound 20 µM): 0.627 | relative viability ([7]; first compound 0.2 µM): 0.841 | relative viability ([7]; first compound 0.6325 µM): 0.717 | relative viability ([7]; first compound 2 µM): 0.711 | relative viability ([7]; first compound 6.325 µM): 0.8 | relative viability ([7]; first compound 20 µM): 0.703 | relative viability ([8]; first compound 0.2 µM): 0.641 | relative viability ([8]; first compound 0.6325 µM): 0.556 | relative viability ([8]; first compound 2 µM): 0.627 | relative viability ([8]; first compound 6.325 µM): 0.65 | relative viability ([8]; first compound 20 µM): 0.614 | relative viability ([9]; first compound 0.2 µM): 0.75 | relative viability ([9]; first compound 0.6325 µM): 0.744 | relative viability ([9]; first compound 2 µM): 0.75 | relative viability ([9]; first compound 6.325 µM): 0.709 | relative viability ([9]; first compound 20 µM): 0.585 | relative viability ([10]; first compound 0.2 µM): 0.226 | relative viability ([10]; first compound 0.6325 µM): 0.158 | relative viability ([10]; first compound 2 µM): 0.179 | relative viability ([10]; first compound 6.325 µM): 0.202 | relative viability ([10]; first compound 20 µM): 0.184 | relative viability ([11]; first compound 0.2 µM): 0.867 | relative viability ([11]; first compound 0.6325 µM): 0.904 | relative viability ([11]; first compound 2 µM): 0.782 | relative viability ([11]; first compound 6.325 µM): 0.805 | relative viability ([11]; first compound 20 µM): 0.817 | relative viability ([12]; first compound 0.2 µM): 0.899 | relative viability ([12]; first compound 6.325 µM): 0.444 | relative viability ([12]; first compound 20 µM): 0.457 | relative viability ([13]; first compound 0.2 µM): 0.479 | relative viability ([13]; first compound 0.6325 µM): 0.393 | relative viability ([13]; first compound 2 µM): 0.415 | relative viability ([13]; first compound 6.325 µM): 0.398 | relative viability ([13]; first compound 20 µM): 0.457 | relative viability ([14]; first compound 0.2 µM): 1.01 | relative viability ([14]; first compound 0.6325 µM): 0.699 | relative viability ([14]; first compound 2 µM): 0.775 | relative viability ([14]; first compound 6.325 µM): 0.847 | relative viability ([14]; first compound 20 µM): 0.616 | relative viability ([15]; first compound 0.6325 µM): 0.589 | relative viability ([15]; first compound 2 µM): 0.749 | relative viability ([15]; first compound 6.325 µM): 0.649 | relative viability ([15]; first compound 20 µM): 0.241 | relative viability ([16]; first compound 0.2 µM): 0.623 | relative viability ([16]; first compound 0.6325 µM): 0.555 | relative viability ([16]; first compound 2 µM): 0.601 | relative viability ([16]; first compound 6.325 µM): 0.635 | relative viability ([16]; first compound 20 µM): 0.553 | relative viability ([17]; first compound 0.2 µM): 0.371 | relative viability ([17]; first compound 2 µM): 0.38 | relative viability ([17]; first compound 6.325 µM): 0.318 | relative viability ([17]; first compound 20 µM): 0.144 | relative viability ([18]; first compound 0.2 µM): 0.656 | relative viability ([18]; first compound 0.6325 µM): 0.599 | relative viability ([18]; first compound 2 µM): 0.625 | relative viability ([18]; first compound 6.325 µM): 0.604 | relative viability ([18]; first compound 20 µM): 0.0709 | relative viability ([19]; first compound 0.2 µM): 0.461 | relative viability ([19]; first compound 0.6325 µM): 0.614 | relative viability ([19]; first compound 2 µM): 0.722 | relative viability ([19]; first compound 6.325 µM): 0.607 | relative viability ([19]; first compound 20 µM): 0.593 | relative viability ([20]; first compound 0.2 µM): 0.492 | relative viability ([20]; first compound 0.6325 µM): 0.453 | relative viability ([20]; first compound 2 µM): 0.339 | relative viability ([20]; first compound 6.325 µM): 0.368 | relative viability ([20]; first compound 20 µM): 0.187 | relative viability ([21]; first compound 0.2 µM): 0.827 | relative viability ([21]; first compound 0.6325 µM): 0.721 | relative viability ([21]; first compound 2 µM): 0.76 | relative viability ([21]; first compound 6.325 µM): 0.753 | relative viability ([21]; first compound 20 µM): 0.751 | relative viability ([22]; first compound 0.2 µM): 0.6 | relative viability ([22]; first compound 0.6325 µM): 0.676 | relative viability ([22]; first compound 6.325 µM): 0.527 | relative viability ([22]; first compound 20 µM): 0.47
